Data as given in patent US20240085425A1, “BIOMARKER AND APPLICATION THEREOF” (ADLAI NORTYE BIOPHARMA CO., LTD., priority 2022, published 2024).

Tested on: Wnt pathway TCF/LEF
Assay: Colo205-LUC-TCF/LEF luciferase reporter assay with or without MG132
Assay type: cell-based
Settings: Colo205-LUC-TCF/LEF cells, 4 hours
Protocol: The Colo205-LUC-TCF/LEF cell line is a reporter tool cell stably transfected with the pGL4.49-LUC2-TCF/LEF vector, and its Wnt/β-catenin pathway is continuously activated. After adding inhibitor, the expression of firefly luciferase regulated by the TCF/LEF cis-element decreased, and after adding the detection substrate, the detected light signal decreased accordingly, thus the inhibitory effect of the compound was detected.
Add 100 μL of the compound AN10250484 at a maximum concentration of 20 μM to each well of the 96-well cell culture plate, and make a 3-fold gradient dilution of the compound concentration. Then inoculate each well with 10,000 stable Colo205-LUC-TCF/LEF cells containing 2 μM MG132 (Proteasome inhibitor) (MCE: HY-13259) or 10,000 Colo205-LUC-TCF/LEF cells containing control solvents, which were treated accordingly as positive and negative control wells. Place the cells in a 5% CO2 cell incubator and incubate at 37° C. for 4 hours. After 4 hours, remove the culture medium, add 100 μL of reagent (Promega) containing the corresponding firefly luciferase substrate to each well, and measure the luciferase reporter gene activity. Use SpectraMax to read the luminescence intensity in full-wavelength mode.

Structure (SMILES): Cc1nc(C(F)(F)F)ncc1Oc1ccc(CNc2nc(C)c3c(n2)N(C)[C@@H](C)C(=O)N3)cn1 [AN10250484]
- Inhibitory effect of the compound on the transcription of TCF/LEF after adding MG132 (2 μM MG132, FIG. 2): significantly reduced
- Transcriptional activity of Wnt pathway TCF/LEF (luciferase reporter), in words (control solvent, FIG. 2): inhibiting Wnt pathway TCF/LEF
